This is an account of results in patent US20100099756A1, “USES OF INCENSOLE, INCENSOLE ACETATE AND DERIVATIVES THEREOF” (YISSUM RESEARCH DEVELOPMENT COMPANY OF THE HEBREW …, priority 2006, published 2010).

One assay addresses T1, mouse TRPV3-YFP (Mus musculus, UniProt Q8K424).
T1 construct: expressed in transfected cells
T1 sequence (Q8K424 1-791): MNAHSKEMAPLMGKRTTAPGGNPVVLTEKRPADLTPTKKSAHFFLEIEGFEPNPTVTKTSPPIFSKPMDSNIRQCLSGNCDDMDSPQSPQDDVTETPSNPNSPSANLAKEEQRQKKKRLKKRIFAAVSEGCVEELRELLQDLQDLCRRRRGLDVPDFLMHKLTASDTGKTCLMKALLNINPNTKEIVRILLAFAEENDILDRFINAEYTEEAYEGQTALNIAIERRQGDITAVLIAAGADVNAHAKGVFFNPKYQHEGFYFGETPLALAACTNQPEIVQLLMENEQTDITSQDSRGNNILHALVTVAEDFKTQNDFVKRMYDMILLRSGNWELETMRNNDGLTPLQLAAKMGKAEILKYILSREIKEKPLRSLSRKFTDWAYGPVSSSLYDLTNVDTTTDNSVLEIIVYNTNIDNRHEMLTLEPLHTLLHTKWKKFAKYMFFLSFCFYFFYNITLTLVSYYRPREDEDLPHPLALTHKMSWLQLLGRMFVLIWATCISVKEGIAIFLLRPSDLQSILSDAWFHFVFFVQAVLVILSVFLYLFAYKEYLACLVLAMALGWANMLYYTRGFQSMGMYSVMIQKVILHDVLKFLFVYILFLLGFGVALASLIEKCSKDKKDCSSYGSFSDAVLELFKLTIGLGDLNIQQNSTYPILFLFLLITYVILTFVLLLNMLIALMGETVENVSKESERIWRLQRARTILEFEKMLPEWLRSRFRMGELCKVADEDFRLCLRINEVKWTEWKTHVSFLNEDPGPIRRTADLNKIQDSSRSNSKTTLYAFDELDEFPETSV
Put plainly: Whole-cell voltage-clamp, TRPV3-YFP expressing HEK293 cells. The format is cell-based. Conditions: IA 200 μM; 2-APB 100 μM; charge −85 to −45 mV. The procedure: (§1) Electrophysiological recording. Currents were recorded using whole-cell voltage-clamp. Pipettes were pulled from microcapillary glass (A-M Systems). A coverslip containing cells was transferred to a 300 μL chamber that was constantly perfused (1-2 mL/min) with external solution. Voltage protocols were generated and data were digitized and recorded using Pulse (HEKA Elektronik) software in conjunction with an Axopatch 200A amplifier (Axon Instruments), and the data analyzed using an in-house Visual Basic (Microsoft) analysis program.
(§2) The external solution contained (in mM): 120 NaCl, 5 KCl, 1 MgCl2, 2 CaCl2, 10 Glucose and 20 HEPES, pH 7.4 with NaOH. The measured charge (pC) was defined as the charge elicited between -85 and -45 mV by a ramping voltage stimulus (−85 mV to +35 mV, 0.54 mV/msec; holding potential -55 mV). Currents were sampled at 5 kHz. Experimental and control cells were alternated whenever possible. Control values were obtained from adjacent cells with no detectable YFP fluorescence, presumed to be non-TRPV3-expressing.

For a further assay, the target named is TRPV1 (Homo sapiens, UniProt Q8NER1). Put plainly: Whole-cell voltage-clamp, TRPV1(+) cells. Type of assay: cell-based. Conditions: IA 200 μM. As to the method: (§3) TRPV3(+) response to IA is shown for reference. *, p<0.001. Error bars represent SEM, n=4-5.
as §1
as §2, with “The pipette solution contained (in mM): 121.5 Kgluconate, 10 HEPES, 17 KCl, 9 NaCl, 1 MgCl2, 0.2 EGTA, 2 MgATP, and 0.5 NaATP, pH 7.2. The external” for “The external”

In a further assay the test system is c-Fos. Put plainly: c-Fos immunoreactivity in mouse brain. Type of assay: in vivo, female Sabra mice. The note with it: 50 mg/kg i.p., 60 min after administration. An excerpt:
The drawings were modified from plates 30; 38,45, 89 respectively from Paxinos and Franklin (2001). The atlas sections are arranged from anterior a to posterior d. The number under each section indicates its distance (mm) from the bregma. “A” is anterior to bregma and “P” is posterior to bregma.
For analysis of c-Fos immunoreactivity, positive nuclei were identified based on their round form and optical density at least twice that of background. The numbers of c-Fos immunoreactive nuclei from the right and left hemispheres were averaged to obtain a representative number for the given region from each mouse. Student t tests were performed comparing the control (vehicle) with the IA group.
The effect of IA on different brain regions were studied by looking at the effect of IA on c-Fos immunoreactivity in mice brains 60 min after administration of IA (50 mg/kg; i.p.). The c-Fos transcription factor is a product of an immediate early gene and its increase serves as a marker of enhanced neuronal activity. It is thus used in histological sections to map out brain regions that are activated or attenuated after treatment with psychoactive drugs [Werme, M., Ringholm, A., Olson, L. & Brene S. Differential patterns of induction of NGFI-B, Norl and c-fos mRNAs in striatal subregions by haloperidol and clozapine. Brain Res. 863, 112-119 (2000); and Dragunow, M., Robertson, G. S., Faull, R. L., Robertson, H. A. & Jansen, K. D2 dopamine receptor antagonists induce fos and related proteins in rat striatal neurons. (1990) Neuroscience 37, 287-294]. […] The central nucleus of the amygdala and the lateral septum play major roles in the expression of emotions [Thompson, B. L. & Rosen, J. B. Immediate-early gene expression in the central nucleus of the amygdala is not specific for anxiolytic or anxiogenic drugs. Neuropharmacology 50, 57-68 (2006); and Henry, B., Vale, W. & Markou, A. The effect of lateral septum corticotropin-releasing factor receptor 2 activation on anxiety is modulated by stress. J. Neurosci. 26, 9142-9152 (2006)]; it is assumed that c-Fos expression in the central nucleus of the amygdala is due to circuits that are engaged by both anxiolytic and anxiogenic drugs [Thompson, B. L. & Rosen, J. B. Immediate-early gene expression in the central nucleus of the amygdala is not specific for anxiolytic or anxiogenic drugs. Neuropharmacology 50, 57-68 (2006).]

A further assay concerns TRPV4. In words: Whole-cell voltage-clamp, TRPV4(+) cells. Type of assay: cell-based. Conditions: IA 200 μM. As to the method:
as §3, §1
as §2, with “The pipette solution contained (in mM): 121.5 Kgluconate, 10 HEPES, 17 KCl, 9 NaCl, 1 MgCl2, 0.2 EGTA, 2 MgATP, and 0.5 NaATP, pH 7.2. The external” for “The external”

Sequence of TRPV1 (Q8NER1 whole entry): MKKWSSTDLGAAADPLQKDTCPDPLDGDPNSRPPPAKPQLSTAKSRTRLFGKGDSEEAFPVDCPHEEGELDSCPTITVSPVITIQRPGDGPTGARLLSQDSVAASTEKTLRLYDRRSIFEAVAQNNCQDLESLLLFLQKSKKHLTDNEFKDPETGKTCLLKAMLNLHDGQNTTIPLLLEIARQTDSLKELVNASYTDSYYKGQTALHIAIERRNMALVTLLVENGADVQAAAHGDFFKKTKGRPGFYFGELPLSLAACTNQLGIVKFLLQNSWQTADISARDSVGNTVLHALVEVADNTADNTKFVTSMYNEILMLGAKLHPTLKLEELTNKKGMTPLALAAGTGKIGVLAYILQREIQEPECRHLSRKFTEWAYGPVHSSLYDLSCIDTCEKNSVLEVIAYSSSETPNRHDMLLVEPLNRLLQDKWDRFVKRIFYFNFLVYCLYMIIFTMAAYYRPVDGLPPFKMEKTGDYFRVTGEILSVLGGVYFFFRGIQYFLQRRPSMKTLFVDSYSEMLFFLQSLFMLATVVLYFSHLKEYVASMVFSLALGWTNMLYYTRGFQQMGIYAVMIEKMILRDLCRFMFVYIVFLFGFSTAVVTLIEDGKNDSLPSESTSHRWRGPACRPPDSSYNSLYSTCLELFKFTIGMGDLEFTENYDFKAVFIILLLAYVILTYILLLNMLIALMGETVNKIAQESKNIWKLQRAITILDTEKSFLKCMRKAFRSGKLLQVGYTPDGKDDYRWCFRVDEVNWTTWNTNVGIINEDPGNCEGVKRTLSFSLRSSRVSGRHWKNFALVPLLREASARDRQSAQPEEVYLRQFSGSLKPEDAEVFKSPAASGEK

As for `CC(=O)OC1CC/C(C)=C/CC/C(C)=C/CC2(C(C)C)CCC1(C)O2` (stereo not drawn) [IA, incensole acetate], at mouse TRPV3-YFP, the “current activation in TRPV3(+) HEK293 cells” value is reported as “activation of currents”. The “current activation in TRPV1(+) cells” value on TRPV1 was “does not activate currents”. In the assay on c-Fos, the “c-Fos in the central nucleus of the amygdala” value was “significantly increased c-Fos”, the “c-Fos in the hippocampal CA3 region” value was “significantly reducing c-Fos”, the “c-Fos in the lateral septum” value is listed as “significantly increased c-Fos” and the “c-Fos in the medial striatum” value is on record as “significantly reducing c-Fos”. In addition, in the assay on c-Fos, the “c-Fos in the motor cortex” value is on record as “significantly reducing c-Fos” and the “c-Fos in the solitary nucleus” value is reported as “significantly increased c-Fos”. Further, in the assay with TRPV4, the “current activation in TRPV4(+) cells” value is reported as “does not activate currents”.
